Key:
ABUTH (Velvetleaf) [1] = assay: Postemergence herbicidal evaluation; assay type: in vivo, Abutilon theophrasti; conditions: postemergence
How it was run: (§1)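 Scores (0–9) reflect plant stand, vigor, malformation, size, chlorosis and general appearance relative to control, read 4 to 5 weeks after treatment and averaged where tests were repeated. Application: about 0.0156–0.500 kg/ha sprayed at 40 psi onto two-week seedlings.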

AMBEL (Ragweed, Common) = assay: Postemergence herbicidal evaluation; assay type: in vivo, Ambrosia artemisifolia; conditions: postemergence
How it was run: as §1

ECHCG (Barnyardgrass) = assay: Postemergence herbicidal evaluation; assay type: in vivo, Echinochloa crus-galli; conditions: postemergence
How it was run: as §1

SETVI (Foxtail, Green) [2] = assay: Postemergence herbicidal evaluation; assay type: in vivo, Setaria viridis; conditions: postemergence
How it was run: as §1

[3] = tested on: GLXMAW (Soybean, Williams); assay: Postemergence herbicidal evaluation; assay type: in vivo, Glycine max, (L.) Merr. cv Williams; conditions: postemergence
How it was run: as §1

ORYSAT (Rice, Tebonnet) = assay: Postemergence herbicidal evaluation; assay type: in vivo, Oryza sativa, (L.) Tebonnet; conditions: postemergence
How it was run: as §1

[4] = tested on: TRZAWR (Wheat, Winter, cv Riband); assay: Postemergence herbicidal evaluation; assay type: in vivo, Triticum aestivum; conditions: postemergence
How it was run: as §1

ABUTH (Velvetleaf) [5] = assay: Preemergence herbicidal evaluation; assay type: in vivo, Abutilon theophrasti; conditions: rated 4-5 weeks after treatment
How it was run: (§2)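 Herbicidal effect scored visually, 0-9, at 4 to 5 weeks against a control; compound applied preemergence by aqueous acetone spray to seeded soil at about 0.0156 to 0.500 kg/ha.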

CASOB (Sicklepod) = assay: Preemergence herbicidal evaluation; assay type: in vivo, Cassia obtusifolia; conditions: rated 4-5 weeks after treatment
How it was run: as §2

SETVI (Foxtail, Green) [6] = assay: Preemergence herbicidal evaluation; assay type: in vivo, Setaria viridis; conditions: rated 4-5 weeks after treatment
How it was run: as §2

MOOVA (Monochoria) = assay: Preemergence weed control under flooded paddy conditions; assay type: in vivo, Monochoria vaginalis; conditions: rated 3-4 weeks after treatment
How it was run: (§3)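 Visual injury scored 0-9 against control three to four weeks post-treatment, greenhouse-grown. Application: acetone/water (50/50) solutions dosed directly into flood water (1.5-3 cm over silt loam, planted top 0.5 cm), roughly 0.0313 to 0.500 kg/ha active ingredient.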

[7] = tested on: SAGPY (Arrowhead (Pygmaea)); assay: as above; assay type: in vivo, Sagittaria pygmaea; conditions: rated 3-4 weeks after treatment
How it was run: as §3

CN1C(=O)C(CC(=O)NO)SC1=Nc1cc(-n2c(=O)cc(C(F)(F)F)n(C)c2=O)c(F)cc1Cl (stereo not shown) [Compound 162, 2-{{2-Chloro-5-[3,6-dihydro-3-methyl-2,6-dioxo-4-(trifluoromethyl)-1(2H)-pyrimidinyl]-4-fluorophenyl}imino}-3-methyl-4-oxo-5-thiazolidineacetohydroxamic acid]
herbicidal rating ABUTH (ABUTH (Velvetleaf) [1]; rate 0.0156 kg/ha): 9.0
herbicidal rating ABUTH (ABUTH (Velvetleaf) [1]; rate 0.0313 kg/ha): 9.0
herbicidal rating ABUTH (ABUTH (Velvetleaf) [1]; rate 0.0625 kg/ha): 9.0
herbicidal rating AMBEL (AMBEL (Ragweed, Common); rate 0.0156 kg/ha): 9.0
herbicidal rating AMBEL (AMBEL (Ragweed, Common); rate 0.0313 kg/ha): 9.0
herbicidal rating AMBEL (AMBEL (Ragweed, Common); rate 0.0625 kg/ha): 9.0
herbicidal rating ECHCG (ECHCG (Barnyardgrass); rate 0.0156 kg/ha): 0.0
herbicidal rating ECHCG (ECHCG (Barnyardgrass); rate 0.0313 kg/ha): 0.0
herbicidal rating ECHCG (ECHCG (Barnyardgrass); rate 0.0625 kg/ha): 0.0
herbicidal rating SETVI (SETVI (Foxtail, Green) [2]; rate 0.0156 kg/ha): 0.0
herbicidal rating SETVI (SETVI (Foxtail, Green) [2]; rate 0.0313 kg/ha): 3.0
herbicidal rating SETVI (SETVI (Foxtail, Green) [2]; rate 0.0625 kg/ha): 4.0
herbicidal rating GLXMAW ([3]; rate 0.0156 kg/ha): 6.0
herbicidal rating GLXMAW ([3]; rate 0.0313 kg/ha): 6.5
herbicidal rating GLXMAW ([3]; rate 0.0625 kg/ha): 8.5
herbicidal rating ORYSAT (ORYSAT (Rice, Tebonnet); rate 0.0156 kg/ha): 0.5
herbicidal rating ORYSAT (ORYSAT (Rice, Tebonnet); rate 0.0313 kg/ha): 1.5
herbicidal rating ORYSAT (ORYSAT (Rice, Tebonnet); rate 0.0625 kg/ha): 1.5
herbicidal rating TRZAWR ([4]; rate 0.0156 kg/ha): 3.5
herbicidal rating TRZAWR ([4]; rate 0.0313 kg/ha): 3.5
herbicidal rating TRZAWR ([4]; rate 0.0625 kg/ha): 3.5
Preemergence herbicidal rating ABUTH (ABUTH (Velvetleaf) [5]; 0.0156 kg/ha): 9.0
Preemergence herbicidal rating ABUTH (ABUTH (Velvetleaf) [5]; 0.0313 kg/ha): 9.0
Preemergence herbicidal rating ABUTH (ABUTH (Velvetleaf) [5]; 0.0625 kg/ha): 9.0
Preemergence herbicidal rating ABUTH (ABUTH (Velvetleaf) [5]; 0.1250 kg/ha): 9.0
Preemergence herbicidal rating ABUTH (ABUTH (Velvetleaf) [5]; 0.2500 kg/ha): 9.0
Preemergence herbicidal rating CASOB (CASOB (Sicklepod); 0.0156 kg/ha): 0.0
Preemergence herbicidal rating CASOB (CASOB (Sicklepod); 0.0625 kg/ha): 0.0
Preemergence herbicidal rating CASOB (CASOB (Sicklepod); 0.1250 kg/ha): 0.0
Preemergence herbicidal rating CASOB (CASOB (Sicklepod); 0.2500 kg/ha): 4.0
Preemergence herbicidal rating SETVI (SETVI (Foxtail, Green) [6]; 0.0156 kg/ha): 9.0
Preemergence herbicidal rating SETVI (SETVI (Foxtail, Green) [6]; 0.0313 kg/ha): 9.0
Preemergence herbicidal rating SETVI (SETVI (Foxtail, Green) [6]; 0.0625 kg/ha): 9.0
Preemergence herbicidal rating SETVI (SETVI (Foxtail, Green) [6]; 0.1250 kg/ha): 9.0
Preemergence herbicidal rating SETVI (SETVI (Foxtail, Green) [6]; 0.2500 kg/ha): 9.0
herbicidal effect rating, MOOVA (MOOVA (Monochoria); 0.0313 kg/ha): 7.0
herbicidal effect rating, MOOVA (MOOVA (Monochoria); 0.0625 kg/ha): 7.0
herbicidal effect rating, MOOVA (MOOVA (Monochoria); 0.1250 kg/ha): 7.0
herbicidal effect rating, MOOVA (MOOVA (Monochoria); 0.2500 kg/ha): 9.0
herbicidal effect rating, SAGPY ([7]; 0.0313 kg/ha): 0.0
herbicidal effect rating, SAGPY ([7]; 0.0625 kg/ha): 3.0
herbicidal effect rating, SAGPY ([7]; 0.1250 kg/ha): 3.0
herbicidal effect rating, SAGPY ([7]; 0.2500 kg/ha): 3.0
